Legend:
[1] = tested on: cathelicidin-induced lesions; test: Mouse model of rosacea (subcutaneous cathelicidin peptide), topical treatment; assay type: in vivo, BALB/c and C57BL/6 mice; conditions: topical formulation containing 0.1% berberine twice a day for 2 days; 4th day; vs controls (n=3 each)
Protocol: The animal model of rosacea: the animal model of rosacea was adopted from previous reported^18. Briefly, BALB/c and C57BL/6 mice, shaved 24 h before treatments, were injected subcutaneously on the back with 40 μl of cathelicdin peptide (320 μM) twice a day. Forty-eight hours after the initial injection (four injections in total), erythema and edema were observed on the injected site mimicking the clinical features of rosacea.
In our experiments, cathelicidin-injected mice were treated with or without topical berberine twice a day to observe the effect of berberine on reducing inflammation. […] The cathelicidin-injected mice were then divided into 2 groups, which were treated with berberine (n=3) or not treated with berberine (n=3; as controls), respectively, for a subsequent 2 days. The topical formulation containing 0.1% berberine was applied on the cathelicidin-induced lesions twice a day. The erythematous or inflammatory lesions lasted for more than 7 days in the control group.

[2] = tested on: IL-8 release from human keratinocytes; test: Cathelicidin peptide (LL-37)-induced IL-8 release from human keratinocytes, ELISA; assay type: cell-based
Protocol: (§1) For our in vitro study, berberine (Sigma, St. Louis, Mo., USA) was dissolved in water, methanol, ethanol or dimethyl sulfoxide (DMSO). Normal human keratinocytes (Invitrogen, CA, USA) were grown in EpiLife medium (Invitrogen, CA, USA) supplemented with 0.06 mM Ca^+2, 1% EpiLife defined growth supplement, and 1% penicillin/streptomycin (Invitrogen, CA, USA). Cells were grown at 37° C. in a humidified atmosphere of 5% CO2 and 95% air. The human keratinocytes were cultured to confluence and treated with synthetic cathelicidin peptides (LL-37) (6.4 μM) for 16 h to induce inflammatory response similar to that observed in rosacea. Some of the cathelicidin-treated keratinocyte cultures were co-incubated with berberine of concentrations from 1.25 μg/ml to 12.5 μg/ml. The keratinocytes cultures treated with cathrlicidin or cathrlicidin with 1% ethanol and without berberine were used as negative controls. Supernatants were collected and placed in a sterile 96-well plate for ELISA of interleukin-8 (IL-8), interleukin-1 alpha (IL-1 alpha), and […] (VEGF) in accordance with the manufacturer's instructions (R&D Systems, MN, USA). […]
(§2) FIG. 1. […] Keratinocytes were stimulated by cathelicidin peptide (LL-37), and the release of IL-8 (FIG. 1A), IL-1 alpha (FIG. 1B) and VEGF (FIG. 1C) by the keratinocytes was evaluated by ELISA assay.

[3] = tested on: VEGF release from human keratinocytes; test: Cathelicidin peptide (LL-37)-induced VEGF release from human keratinocytes, ELISA; assay type: cell-based; conditions: 1.25 μg/ml berberine; LL-37 6.4 μM, 16 h; vs cathelicidin peptide with 1% ethanol control; P<0.05
Protocol: as §1, §2

[4] = tested on: IL-1 alpha release from human keratinocytes; test: Cathelicidin peptide (LL-37)-induced IL-1 alpha release from human keratinocytes, ELISA; assay type: cell-based; conditions: 1.25 μg/ml berberine; LL-37 6.4 μM, 16 h; vs cathelicidin peptide with 1% ethanol control; P<0.05
Protocol: as §1, §2

patients with rosacea = test: Open-label human clinical study on patients with rosacea; assay type: in vivo; conditions: for overall erythema severity (score 0 to 3): baseline 2.35±0.6; for overall erythema severity (score 0 to 3) / IGA score (7-point, 0 clear to 6 severe): P<0.0001 vs W0; for IGA score (7-point, 0 clear to 6 severe): baseline 4.1±1.3
Protocol: Method: an open-label clinical study was carried out to determine the efficacy of the topical berberine formulations of this invention for the treatment of rosacea and related skin disorders. Patients included in this study were diagnosed by dermatologists to have clinically defined rosacea. All patients were given 0.1% berberine gel twice a day for 6 weeks. At the time points of treatment initiation, and 2-weeks and 6-weeks after treatment, the patients were evaluated for their rosasea symptoms. The patients were not allowed to use other medications, including antibiotics, for their skin conditions. Only oral antihistamines were allowed for relief of pruritus symptoms. To evaluate the efficacy of treatment, the standard grading system for rosacea developed by the National Rosacea Society Expert Committee on the Classification and Staging of Rosacea was used^3. Additionally, the investigator's global assessment (IGA) and overall erythema severity of the patients were scored at week 0, week 2, and week 6 of berberine therapy. The IGA was expressed according to a 7-point scoring system with a range of 0 (clear) to 6 (severe). The severity of overall facial erythema and telangiectasia, respectively, was graded as ‘none’, ‘mild’, ‘moderate’, or ‘severe’ with scores from 0 to 3. The grading system used to assess overall facial erythema severity was described previously^38. Results: a total of 20 patients with rosacea (18 females and 2 males) were enrolled in this study. The mean age of the study population was 43.3 (19-85) years. The mean duration of rosacea prior to berberine treatment was 4 (1-24) years. Among the 20 patients with rosacea, 13 cases were of erythematotelangiectatic type (65%), 7 cases papulopustular type (35%), and […].

[5] = 0.1% berberine gel twice a day, end of treatment (6 weeks), 19 of the 20 patients

COc1ccc2cc3[n+](cc2c1OC)CCc1cc2c(cc1-3)OCO2 [berberine, 5,6-dihydro-9,10-dimethoxybenzo(g)-1,3-benzodioxolo (5,6-a) quinolizinium]
erythema and vascular dilatation [1]: significant reduced | inhibition of cathelicidin induced inflammatory response (IL-8, IL-1 alpha, VEGF release) ([2]; 0-12.5 μg/ml, especially when concentration larger than 6.25 μg/ml): significant inhibit cathelicidin induced inflammatory response in a dose-dependent manner | decrease of the release of IL-8 ([2]; 1.25 μg/ml berberine, LL-37 6.4 μM, 16 h, vs cathelicidin peptide with 1% ethanol control, P<0.05): 31.4% | decrease of the release of VEGF [3]: 29.1% | decrease of the release of IL-1 alpha [4]: 24.9% | cases with transient itchy/stinging sensation in the area of topical medication (patients with rosacea; 0.1% berberine gel twice a day for 6 weeks, 2 cases of 20, tolerable without discontinuation): 10% | serious adverse events (patients with rosacea; 0.1% berberine gel twice a day for 6 weeks, 20 patients): no serious adverse event | patients with a mild (1) to none (0) erythema rating (patients with rosacea; [5]): 95% | patients with a mild (2) to clear (0) IGA rating (patients with rosacea; [5]): 95% | overall erythema severity (score 0 to 3) (patients with rosacea; 0.1% berberine gel twice a day, week 2): 1.5±0.5 | IGA score (7-point, 0 clear to 6 severe) (patients with rosacea; 0.1% berberine gel twice a day, week 2, 20 patients): 2.6±0.9 | overall erythema severity (score 0 to 3) (patients with rosacea; 0.1% berberine gel twice a day, week 6): 0.95±0.4 | IGA score (7-point, 0 clear to 6 severe) (patients with rosacea; 0.1% berberine gel twice a day, week 6, 20 patients): 1.6±0.8

Reference: US9486402B2, “Compositions containing berberine or analogs thereof for treating rosacea or red face related skin disorders” (Derman Biomedicine Co. Ltd, priority 2009, dated 2016)
